From PubChem BioAssay AID256 (DTP/NCI, 2004)
Values joined by “and” are separate entries in the source; they are usually repeats but may differ in a detail not shown here. Equal entries are not always repeated. Toxic doses and inconclusive results are not listed. The calls were made as follows: active = survival T/C of 150% or more; inactive = T/C below 125% in these data.

Test system: CD2F1 mice, L1210 leukemia ip, survival T/C
Experiment: NCI In Vivo Anticancer Drug Screen. Data for tumor model L1210 Leukemia (intraperitoneal) in CD2F1 (CDF1) mice
Settings: endpoint: mean survival time, higher = longer survival
Method in brief: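 Implant tumor; dose compound or vehicle; measure endpoint in both groups; report treated divided by control.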

[1] = dose: 12.5 mg/kg/injection, schedule: Q01DX009 (ip), vehicle: saline with Tween-80
[2] = dose: 25.0 mg/kg/injection, schedule: Q01DX009 (ip), vehicle: saline with Tween-80

Measured: T/C

CCN=C(N)SCCS(=O)(=O)O
inactive: dose: 100.0 mg/kg/injection, schedule: Q01DX005 (ip), vehicle: saline 103 % of control | dose: 100.0 mg/kg/injection, schedule: Q01DX009 (ip), vehicle: saline 97 % of control | dose: 200.0 mg/kg/injection, schedule: Q01DX005 (ip), vehicle: saline 106 % of control | dose: 200.0 mg/kg/injection, schedule: Q01DX009 (ip), vehicle: saline 97 % of control | dose: 400.0 mg/kg/injection, schedule: Q01DX005 (ip), vehicle: saline 95 % of control | dose: 400.0 mg/kg/injection, schedule: Q01DX009 (ip), vehicle: saline 97 % of control

O=[N+]([O-])c1ccc(/C=N/O)s1
inactive: [1] 106 % of control | [2] 98 % of control

CC(=O)Nc1nnc(Cl)s1
inactive: dose: 100.0 mg/kg/injection, schedule: Q04DX002 (ip), vehicle: saline 101 % of control | dose: 200.0 mg/kg/injection, schedule: Q04DX002 (ip), vehicle: saline 97 % of control | dose: 400.0 mg/kg/injection, schedule: Q04DX002 (ip), vehicle: saline 104 % of control

CN1C2CCC1CC(OC(=O)/C=C/C(=O)OC1CC3CCC(C1)N3C)C2 (configuration not stated)
inactive: dose: 75.0 mg/kg/injection, schedule: Q01DX001 (ip), vehicle: saline 94 % of control | dose: 150.0 mg/kg/injection, schedule: Q01DX001 (ip), vehicle: saline 106 % of control | dose: 300.0 mg/kg/injection, schedule: Q01DX001 (ip), vehicle: saline 94 % of control

CCCCCCCCCCCC(=O)/C=C/Sc1n[nH]c(=O)[nH]c1=O
inactive: dose: 12.5 mg/kg/injection, schedule: Q01DX005 (ip), vehicle: distilled water + Tween-80 102 % of control | dose: 25.0 mg/kg/injection, schedule: Q01DX005 (ip), vehicle: distilled water + Tween-80 104 % of control | dose: 50.0 mg/kg/injection, schedule: Q01DX005 (ip), vehicle: distilled water + Tween-80 100 % of control | dose: 100.0 mg/kg/injection, schedule: Q01DX005 (ip), vehicle: distilled water + Tween-80 102 % of control

C#CC1(c2ccccc2)OCCO1
inactive: [1] 97 % of control | [2] 97 % of control | dose: 50.0 mg/kg/injection, schedule: Q01DX009 (ip), vehicle: saline with Tween-80 94 % of control

Cc1c(C#N)sc2ccccc12
inactive: dose: 50.0 mg/kg/injection, schedule: Q01DX009 (ip), vehicle: other 112 % of control | dose: 100.0 mg/kg/injection, schedule: Q01DX009 (ip), vehicle: other 95 % of control | dose: 100.0 mg/kg/injection, schedule: Q04DX003 (ip), vehicle: other 109 % of control | dose: 200.0 mg/kg/injection, schedule: Q04DX003 (ip), vehicle: other 92 % of control

CN(Cc1c[nH]c2nc(N)nc(N)c2c1=O)c1ccc(C(=O)NC(CCC(=O)O)C(=O)O)cc1 (configuration not stated)
inactive: dose: 0.5 mg/kg/injection, schedule: Q01DX005 (ip), vehicle: sodium bicarbonate 97 % of control and 98 % of control | dose: 1.0 mg/kg/injection, schedule: Q01DX005 (ip), vehicle: distilled water + Tween-80 105 % of control | dose: 1.0 mg/kg/injection, schedule: Q01DX005 (ip), vehicle: sodium bicarbonate 91 % of control and 108 % of control | dose: 2.0 mg/kg/injection, schedule: Q01DX005 (ip), vehicle: distilled water + Tween-80 102 % of control | dose: 2.0 mg/kg/injection, schedule: Q01DX005 (ip), vehicle: sodium bicarbonate 97 % of control and 103 % of control | dose: 4.0 mg/kg/injection, schedule: Q01DX005 (ip), vehicle: distilled water + Tween-80 100 % of control | dose: 4.0 mg/kg/injection, schedule: Q01DX005 (ip), vehicle: sodium bicarbonate 121 % of control and 104 % of control | dose: 8.0 mg/kg/injection, schedule: Q01DX005 (ip), vehicle: distilled water + Tween-80 97 % of control | dose: 8.0 mg/kg/injection, schedule: Q01DX005 (ip), vehicle: sodium bicarbonate 101 % of control | dose: 16.0 mg/kg/injection, schedule: Q01DX005 (ip), vehicle: distilled water + Tween-80 102 % of control | dose: 16.0 mg/kg/injection, schedule: Q01DX005 (ip), vehicle: sodium bicarbonate 98 % of control and 102 % of control

COc1cc2ccc(/C(C)=N/OC(C)=O)cc2cc1OC
inactive: dose: 100.0 mg/kg/injection, schedule: Q01DX009 (ip), vehicle: saline with Tween-80 100 % of control | dose: 200.0 mg/kg/injection, schedule: Q01DX009 (ip), vehicle: saline with Tween-80 102 % of control | dose: 400.0 mg/kg/injection, schedule: Q01DX009 (ip), vehicle: saline with Tween-80 97 % of control

COc1ccccc1C1C=CCCCC1 (configuration not stated)
inactive: dose: 100.0 mg/kg/injection, schedule: Q04DX003 (ip), vehicle: saline 95 % of control | dose: 200.0 mg/kg/injection, schedule: Q04DX003 (ip), vehicle: saline 93 % of control | dose: 400.0 mg/kg/injection, schedule: Q04DX003 (ip), vehicle: saline 96 % of control
